Patent publication US7507395B2, “Methods of using fluorescent pH indicators for intracellular assays” (MDS Analytical Technologies (US) Inc., priority 2001, dated 2009)

Key:
[1] = background statement; cited from earlier work
[2] = pH buffer series, final concentration 1.0 μM, Gemini XS fluorescence plate reader
Excerpt: The excitation and emission spectra of the aqueous solutions are obtained with a Gemini XS fluorescence plate reader (Molecular Devices Corporation; Sunnyvale, Calif.).

M1CHO cells [3] = assay: Pirenzapine inhibition of carbachol-mediated stimulation of M1CHO cells (intracellular pH); type: cell-based; settings: pirenzapine 0.1, 0.3, 1.0 μM, carbachol 1 μM
Method: M1CHO Cells, 50,000, in 40 μL are seeded and incubated at 37° C., 5% CO2 overnight in a 96-well microplate. To each well is added 10 μL of the Loading Buffer (as described in Examples 19 and 20) including a fluorescein diacetate compound of the invention and a nonfluorescent quenching dye. After 45 min at room temperature 5 μL of 220 mM ammonium chloride, in combination with pirenzapine to a final concentration of 0.0 μM, 1.0 μM, 0.3 μM, and 0.1 μM. […] A drop in fluorescence signal is observed at time=10 to 20 seconds, corresponding to a drop in signal due to the increased acidification of the cells. The low pH stimulates the Na^+/H^+ exchange pump.

M1CHO cells [4] = assay: Effect of increasing concentrations of carbachol on M1CHO cells (intracellular pH); type: cell-based; settings: carbachol 6.7 μM or 0 μM, after ammonium chloride
Method: M1CHO cells, 50,000, in 40 μL were seeded and incubated at 37° C., 5% CO2 overnight in a 96-well microplate. To each well is added 10 μL of the Loading Buffer (as described in Examples 19 and 20) including a fluorescein diacetate compound of the invention and a nonfluorescent quenching dye. After 45 min at room temperature, 5 μL of 220 mM ammonium chloride is added. […] A drop is fluorescence signal is observed at time=10 to 20 seconds due to the increased acidification of the cells. The low pH stimulates the Na^+/H^+ exchange pump.
For Compounds 19 and 20, emission is monitored at 550 nm and excitation is monitored at 505 and 470 nm.

MCF7/ADR cells = assay: Drug Resistance Assay: insulin on MCF7/ADR cells (intracellular pH); type: cell-based; settings: 0.003-150 nM insulin, after NH4Cl acid load, FIG. 6
Method: MCF7/ADR cells are MCF7 mammary gland adenocarcinoma selected for adriamycin resistance. These cells are propagated and maintained in DMEM medium containing 5% FCS, 1× Pen/Strep, 2 mM L-glutamine, and non-essential amino acids. The assay is performed according to the following procedure.
The cells are then incubated in a 37° C. CO2 incubator overnight.
A 25 mM stock solution of a Masking Compound is prepared by dissolving an appropriate amount of the desired Masking Compound in 10 mL water.
The cell plate is removed from the incubator, and all wells are washed once with 1× Assay Buffer, leaving 40 μL of buffer in each well. The cell plate is then incubated at 37° C. for at least 4 hours.
A stock solution of insulin is prepared by dissolving 1 mg of insulin in 1 mL of 1 M HCl to a concentration of 174 μM. A 5 μL aliquot of the insulin stock solution is diluted with 4,574 μL H+H/2 mM probenecid/0.1% BSA solution (190 nM stock, 150 nM final concentration). Three-fold dilutions are performed 11 times to obtain final concentrations of 0.003, 0.008, 0.02, 0.07, 0.2, 0.6, 1.9, 5.6, 17, 50, and 150 nM, respectively.

CHO/CCR5/Galphaqi5 cells = assay: Effect of increasing concentrations of RANTES on CHO/CCR5/Galphaqi5 cells (intracellular pH); type: cell-based; settings: RANTES 2-500 nM, after ammonium chloride
Method: CHO/CCR5/Galphaqi5 cells, 80,000, in 40 μL are seeded and incubated at 37° C., 5% CO2 overnight in a 96-well microplate. To each well is added 10 μL of Loading Buffer (as described in Examples 19 and 20) including a fluorescein diacetate compound of the invention and a nonfluorescent quenching dye. After 45 min at room temperature 5 μL of 220 mM ammonium chloride is added. Following an additional 15 min incubation at room temperature, 200 μL of buffer containing RANTES to a final concentration of 500, 167, 56, 19, 6, 2, or 0 nM is added using the fluidics module on a fluorescence microplate reader (10 seconds after the start of the experiment) and fluorescence readings are recorded. A drop in fluorescence signal is observed at time=10 to 20 seconds, corresponding to an increased acidification of the cells. The low pH stimulates the Na+/H+ exchange pump.

## 2′,7′-bis-(2-carboxyethyl)-5-(and-6)-carboxyfluorescein [BCECF]
[1]
  pKa: 7.0

## 2′,7′-diethyl-5-(or 6-)carboxyfluorescein [Compound 4]
[2]
  calculated pKa (acid dissociation constant): 6.96

## CN1CCN(CC(=O)N2c3ccccc3C(=O)Nc3cccnc32)CC1 [Pirenzapine]
M1CHO cells [3]
  effect on carbachol-mediated stimulation: inhibits the carbachol-mediated stimulation

## C[N+](C)(C)CCOC(N)=O [carbachol]
M1CHO cells [4]
  activity of the Na+/H+ exchange pump / alkalinization of the cells: increases the activity of the pump, resulting in a greater alkalinization of the cells in a dose:dependent manner

## insulin
MCF7/ADR cells
  activity of the Na+/H+ exchange pump / alkalinization of the cells: increases the activity of the pump, resulting in a greater alkalinization of the cells in a dose-dependent manner

B1: RANTES (protein, UniProt P13501 24-91, looked up)
C-C motif chemokine 5: SPYSSDTTPCCFAYIARPLPRAHIKEYFYTSGKCSNPAVVFVTRKNRQVCANPEKKWVREYINSLEMS
notes: RANTES, added to CHO/CCR5/Galphaqi5 cells at increasing concentrations
CHO/CCR5/Galphaqi5 cells
  activity of the Na+/H+ exchange pump / alkalinization of the cells: increases the activity of the pump, resulting in a greater alkalinization of the cells in a dose:dependent manner
